Test system: 633275-114-R-J1-PDC complex spheroids, viability
Experiment: Anticancer human tumor 633275-114-R-J1-PDC patient-derived endometrial adenocarcinoma cell line growth inhibition [GQUAD]
Conditions: for IC50: curve of first compound; for viability, T/C: stronger effect = lower value
Excerpt: DNA G-quadruplex Stabilizer Agents in Combinations in Complex Spheroids
A high-throughput screen of multi-cell type tumor spheroids was designed to identify active combinations of DNA G-quadruplex stabilizer agents and targeted small molecules. Complex spheroids include a stromal component modeled by human endothelial cells (HUVEC) and fibroblasts modeled by human mesenchymal stem cells (MSCs). The concentration ranges selected for each drug and investigational agent were based upon clinically achievable concentrations if the clinical Cmax of the agent was known.
Compounds. The drugs and investigational agents: pidnarulex (CX-5461; NSC782164), APTO-253 (NSC789042), BRACO-19 (NSC847499), peposertib (NSC802822), ceralasertib (NSC780249), elimusertib (NSC800525), camonsertib (NSC841442), AZD-1390 (NSC803789), olaparib (NSC753686), talazoparib (NSC767125), ART-558 (NSC835418), sotorasib (NSC818433), MRTX-1133 (NSC836407), SN-38 (NSC673596), topotecan (NSC609699), etoposide (NSC141540), doxorubicin (NSC123127), gemcitabine (NSC613327), 5-fluorouracil (NSC19893), paclitaxel (NSC125973), vemurafenib (NSC761431), panobinostat (NSC761190), R-306465 (JNJ-16241199; NSC773264), adavosertib (NSC754352), TP-3654 (NSC805149), carboplatin (NSC241240), KSQ-4279 (NSC840948), and staurosporine (NSC755774) were obtained from the National Cancer Institute (NCI) Developmental Therapeutics Program Chemical Repository (34). The FDA-approved anticancer drug set is available from the NCI Developmental Therapeutics Program. […] The stock solutions were prepared in dimethyl sulfoxide (DMSO, Sigma-Aldrich, St. Louis, MO, cat. D2650) at 800-fold the tested concentration and stored at -70 degrees C prior to their use. All drugs and investigational agents were tested over a range starting from a high concentration at or near the clinical Cmax and decreasing in half-log increments. If the clinical Cmax for an agent had not been determined, the highest concentration tested was 10 microM.
2.3 Cell Culture. All cells were maintained in an incubator at 37 degrees C and 5% CO2 with 95% humidity. The PDC lines were cultured according to standard operating procedures established by the NCI PDMR. All PDCs were thawed and cultured in Matrigel-coated flasks prepared with a working solution of 1X Ham's F-12 nutrient mix, without supplementation (Invitrogen, cat. 11765054), 100 U/mL penicillin-streptomycin (Invitrogen, cat. 15140122), and 2.5% Matrigel (Corning Inc., cat. 354248) for the first three passages. The 857933-349-R-J2-PDC line was cultured in 6C/Colon 1B media, which includes advanced DMEM/F-12 (Thermo Fisher Scientific, cat. 12634028), 10 mM HEPES (Thermo Fisher Scientific, cat. 15630080), 1X GlutaMAX supplement (Thermo Fisher Scientific, cat. 35050061), 0.1 mg/mL primocin (InvivoGen, cat. ant-pm-2), 10% defined fetal bovine serum, heat inactivated (HyClone Laboratories Inc., cat. SH30070.03HI), 50% L-WRN conditioned media (ATCC, cat. CRL-3276), 1.25 mM N-Acetyl-L-cysteine (Sigma-Aldrich, cat. A9165), 10 mM nicotinamide (Sigma-Aldrich, cat. N0636), 1X B-27 supplement (Thermo Fisher Scientific, cat. 17504044), 1X N-2 supplement (Thermo Fisher Scientific, cat. 17502048), 10 microM Y-27632 dihydrochloride (Tocris Bioscience, cat. 1254), and 50 ng/mL human EGF recombinant protein (Thermo Fisher Scientific, cat. PHG0311). The 485176-168-R4-J1-PDC line was cultured in Panc media, which includes all 6C/Colon 1B media components plus 100 ng/mL human FGF-10 (Thermo Fisher Scientific, cat. 100-26), 500 nM SB-431542 (Selleckchem, cat. S1067), and gastrin (Tocris, cat. 3006).
[…]

[1] = second compound 0.0316 µM, first compound 0.0316 µM
[2] = second compound 0.0316 µM, first compound 0.1 µM
[3] = second compound 0.0316 µM, first compound 0.316 µM
[4] = second compound 0.0316 µM, first compound 1 µM
[5] = second compound 0.0316 µM, first compound 3.16 µM
[6] = second compound 0.0316 µM, first compound 10 µM
[7] = second compound 0.1 µM, first compound 0.0316 µM
[8] = second compound 0.1 µM, first compound 0.1 µM
[9] = second compound 0.1 µM, first compound 0.316 µM
[10] = second compound 0.1 µM, first compound 1 µM
[11] = second compound 0.1 µM, first compound 3.16 µM
[12] = second compound 0.1 µM, first compound 10 µM
[13] = second compound 0.316 µM, first compound 0.0316 µM
[14] = second compound 0.316 µM, first compound 0.1 µM
[15] = second compound 0.316 µM, first compound 0.316 µM
[16] = second compound 0.316 µM, first compound 1 µM
[17] = second compound 0.316 µM, first compound 3.16 µM
[18] = second compound 0.316 µM, first compound 10 µM
[19] = second compound 1 µM, first compound 0.0316 µM
[20] = second compound 1 µM, first compound 0.1 µM
[21] = second compound 1 µM, first compound 0.316 µM
[22] = second compound 1 µM, first compound 1 µM
[23] = second compound 1 µM, first compound 3.16 µM
[24] = second compound 1 µM, first compound 10 µM
[25] = second compound 3.16 µM, first compound 0.0316 µM
[26] = second compound 3.16 µM, first compound 0.1 µM
[27] = second compound 3.16 µM, first compound 0.316 µM
[28] = second compound 3.16 µM, first compound 1 µM
[29] = second compound 3.16 µM, first compound 3.16 µM
[30] = second compound 3.16 µM, first compound 10 µM
[31] = second compound 10 µM, first compound 0.0316 µM
[32] = second compound 10 µM, first compound 0.1 µM
[33] = second compound 10 µM, first compound 0.316 µM
[34] = second compound 10 µM, first compound 1 µM
[35] = second compound 10 µM, first compound 3.16 µM
[36] = second compound 10 µM, first compound 10 µM
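Further: spheroids exposed to the agents for seven days.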
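Wherever viability, T/C is given: percent of DMSO vehicle control viability which is 100%.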

For `COc1cc(C2c3cc4c(cc3C(OC3OC5COC(C)OC5C(O)C3O)C3COC(=O)C23)OCO4)cc(OC)c1O` (centres undefined) + CN(C)c1ccc(Nc2c3ccc(NC(=O)CCN4CCCC4)cc3nc3cc(NC(=O)CCN4CCCC4)ccc23)cc1, the IC50 (second compound 0.0316 µM) was 295 nM, the IC50 (second compound 0.1 µM) was 284 nM and the IC50 (second compound 0.316 µM) was 296 nM. For the same compound, the IC50 (second compound 1 µM) was 334 nM, the IC50 (second compound 3.16 µM) was 171 nM and the IC50 (second compound 10 µM) was less than 31.6 nM. It also gave a viability, T/C [1] of 81.6%, a viability, T/C [2] of 64.5% and a viability, T/C [3] of 47.3%. For the same compound, the viability, T/C [4] was 40.9%, the viability, T/C [5] was 33.7% and the viability, T/C [6] was 30.3%. It also gave a viability, T/C [7] of 80.2%, a viability, T/C [8] of 64.8% and a viability, T/C [9] of 44.7%. It also gave a viability, T/C [10] of 41.4%, a viability, T/C [11] of 32.6% and a viability, T/C [12] of 26.9%. For the same compound, the viability, T/C [13] was 84.3%, the viability, T/C [14] was 69.7% and the viability, T/C [15] was 48.4%. It also gave a viability, T/C [16] of 36.8%, a viability, T/C [17] of 38.4% and a viability, T/C [18] of 29.8%. The viability, T/C [19] was 75.4%, the viability, T/C [20] was 59.5% and the viability, T/C [21] was 52.1%. It also gave a viability, T/C [22] of 38.7%, a viability, T/C [23] of 36.7% and a viability, T/C [24] of 26.7%. The viability, T/C [25] was 71.7%, the viability, T/C [26] was 53.7% and the viability, T/C [27] was 43.6%. For the same compound, the viability, T/C [28] was 36.4%, the viability, T/C [29] was 37.5% and the viability, T/C [30] was 26%. The viability, T/C [31] was 25.5%, the viability, T/C [32] was 19.9% and the viability, T/C [33] was 18.5%. It also gave a viability, T/C [34] of 17.5%, a viability, T/C [35] of 16.3% and a viability, T/C [36] of 10.7%.

For `C=CCn1c(=O)c2cnc(Nc3ccc(N4CCN(C)CC4)cc3)nc2n1-c1cccc(C(C)(C)O)n1` + Cc1[nH]c2ccc(F)cc2c1-c1nc2c3cccnc3c3ncccc3c2[nH]1, the IC50 (second compound 0.0316 µM) was 645 nM, the IC50 (second compound 0.1 µM) was 720 nM and the IC50 (second compound 0.316 µM) was 623 nM. It also gave an IC50 (second compound 1 µM) of 577 nM, an IC50 (second compound 3.16 µM) of 361 nM and an IC50 (second compound 10 µM) of 165 nM. For the same compound, the viability, T/C [1] was 105%, the viability, T/C [2] was 100% and the viability, T/C [3] was 73.3%. The viability, T/C [4] was 35.1%, the viability, T/C [5] was 22.2% and the viability, T/C [6] was 16.2%. It also gave a viability, T/C [7] of 103%, a viability, T/C [8] of 97.9% and a viability, T/C [9] of 73.9%. It also gave a viability, T/C [10] of 40.4%, a viability, T/C [11] of 22.6% and a viability, T/C [12] of 17.4%. The viability, T/C [13] was 101%, the viability, T/C [14] was 93.9% and the viability, T/C [15] was 67.9%. For the same compound, the viability, T/C [16] was 37.2%, the viability, T/C [17] was 21.8% and the viability, T/C [18] was 16%. The viability, T/C [19] was 87.1%, the viability, T/C [20] was 97.8% and the viability, T/C [21] was 67.3%. It also gave a viability, T/C [22] of 33.3%, a viability, T/C [23] of 19.3% and a viability, T/C [24] of 15.6%. It also gave a viability, T/C [25] of 69.3%, a viability, T/C [26] of 69.4% and a viability, T/C [27] of 51.5%. For the same compound, the viability, T/C [28] was 29.8%, the viability, T/C [29] was 18.6% and the viability, T/C [30] was 14.8%. It also gave a viability, T/C [31] of 58.2%, a viability, T/C [32] of 55% and a viability, T/C [33] of 43.4%. The viability, T/C [34] was 26.2%, the viability, T/C [35] was 17.9% and the viability, T/C [36] was 16.6%.

From PubChem BioAssay AID2060505 (Molecular Pharmacology Branch, DTP, NCI, 2025)
